Results: PubChem BioAssay (NCI)
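Method: 48-hour compound exposure of cells in 96-well plates, five concentrations, linear interpolation of endpoints. GI50 is the concentration that inhibits growth by half. TGI marks complete inhibition of growth.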 Where a SMILES comes first, the peptide text is derived from it. The star is where a group is joined. Cbz = O=C(OCc1ccccc1)*; Bn = c1ccc(C*)cc1

Legend:
Assay in all cases: NCI tumour cell line growth inhibition, 48 h
HOP-62 NSCLC = tested on: HOP-62 NSCLC
OVCAR-5 ovarian = tested on: OVCAR-5 ovarian
LOX IMVI melanoma = tested on: LOX IMVI melanoma
K-562 leukemia = tested on: K-562 leukemia
HCT-15 colon = tested on: HCT-15 colon
SW-620 colon = tested on: SW-620 colon
A498 renal = tested on: A498 renal
EKVX NSCLC = tested on: EKVX NSCLC
NCI-H460 lung = tested on: NCI-H460 lung
SF-268 CNS = tested on: SF-268 CNS
TK-10 renal = tested on: TK-10 renal

CCn1c(=O)c(C(=O)O)c(Cl)c2cc3c(cc21)OCO3
TGI (HOP-62 NSCLC): > 100 µM
TGI (OVCAR-5 ovarian): > 100 µM
TGI (LOX IMVI melanoma): > 100 µM
TGI (K-562 leukemia): > 100 µM
TGI (HCT-15 colon): > 100 µM
TGI (SW-620 colon): > 100 µM
TGI (A498 renal): > 100 µM
TGI (EKVX NSCLC): > 100 µM
TGI (NCI-H460 lung): > 100 µM
TGI (SF-268 CNS): > 100 µM

CC(=O)OCC1OC(NC(=O)N(CCCl)N=O)C(OC(C)=O)C(OC(C)=O)C1OC(C)=O (configuration not stated)
TGI (HOP-62 NSCLC): > 100 µM
TGI (OVCAR-5 ovarian): > 100 µM
TGI (LOX IMVI melanoma): > 100 µM
TGI (K-562 leukemia): > 100 µM
TGI (HCT-15 colon): > 100 µM
TGI (SW-620 colon): > 100 µM
TGI (A498 renal): > 100 µM
TGI (EKVX NSCLC): > 100 µM
TGI (NCI-H460 lung): > 100 µM
TGI (SF-268 CNS): > 100 µM

CC1C[C@]2(C[C@@H](C)C(=O)O2)OC2CC3(C)C4CCC5C(C)(C)OC(=O)CC[C@@]56C[C@@]46CC[C@]3(C)C12 (some centres not stated)
TGI (OVCAR-5 ovarian): > 100 µM
TGI (LOX IMVI melanoma): > 100 µM
TGI (K-562 leukemia): > 100 µM
TGI (HCT-15 colon): > 100 µM
TGI (TK-10 renal): > 100 µM
TGI (SW-620 colon): > 100 µM
TGI (A498 renal): > 100 µM
TGI (EKVX NSCLC): > 100 µM
TGI (NCI-H460 lung): > 100 µM
TGI (SF-268 CNS): > 100 µM

c1ccc(-c2n(Cc3ccc4ccccc4c3)c3ccccc3[n+]2Cc2ccc3ccccc3c2)cc1
GI50 (OVCAR-5 ovarian): 0.44 µM
TGI (OVCAR-5 ovarian): 1.76 µM
GI50 (HCT-15 colon): 1.39 µM
TGI (HCT-15 colon): 2.91 µM
GI50 (SW-620 colon): 0.331 µM
TGI (SW-620 colon): 1.33 µM
GI50 (A498 renal): < 0.043 µM
TGI (A498 renal): 0.933 µM

N=C(N)c1ccc(-c2ccc(-c3ccc4ccccc4c3)s2)s1
GI50 (HOP-62 NSCLC): 2.08 µM
TGI (HOP-62 NSCLC): 5.24 µM
GI50 (HCT-15 colon): 1.69 µM
TGI (HCT-15 colon): 3.29 µM
GI50 (TK-10 renal): 2.23 µM
TGI (TK-10 renal): 4.77 µM
GI50 (SW-620 colon): 1.91 µM
TGI (SW-620 colon): 3.52 µM
GI50 (A498 renal): 1.7 µM
TGI (A498 renal): 10.5 µM
GI50 (EKVX NSCLC): 2.46 µM
TGI (EKVX NSCLC): 7.44 µM
GI50 (NCI-H460 lung): 1.95 µM
TGI (NCI-H460 lung): 3.7 µM
GI50 (SF-268 CNS): 2.25 µM
TGI (SF-268 CNS): 5.5 µM

COC(=O)C(Cc1ccc(O)cc1)NC(=O)C(COCc1ccccc1)NC(=O)OCc1ccccc1 (configuration not stated) (Cbz-Ser(Bn)-Tyr-OMe; configuration not given here)
TGI (HOP-62 NSCLC): 33.6 µM
TGI (OVCAR-5 ovarian): 36.7 µM
TGI (LOX IMVI melanoma): 41 µM
TGI (K-562 leukemia): > 100 µM
TGI (HCT-15 colon): 33.6 µM
TGI (TK-10 renal): 35.2 µM
TGI (SW-620 colon): 32.9 µM
TGI (A498 renal): 58 µM
TGI (EKVX NSCLC): 43.8 µM
TGI (NCI-H460 lung): 14.3 µM
TGI (SF-268 CNS): 31.9 µM

C1CSCCSCSCCS1
TGI (HOP-62 NSCLC): > 100 µM
TGI (OVCAR-5 ovarian): > 100 µM
TGI (LOX IMVI melanoma): > 100 µM
TGI (HCT-15 colon): > 100 µM
TGI (TK-10 renal): > 100 µM
TGI (SW-620 colon): > 100 µM
TGI (A498 renal): > 100 µM
TGI (EKVX NSCLC): > 100 µM
TGI (NCI-H460 lung): > 100 µM
TGI (SF-268 CNS): > 100 µM

COc1ccc(-c2oc3cc(OC(C)=O)cc(OC(C)=O)c3c(=O)c2OC)cc1
TGI (HOP-62 NSCLC): 42.4 µM
TGI (OVCAR-5 ovarian): 47.3 µM
TGI (LOX IMVI melanoma): 27.9 µM
TGI (K-562 leukemia): 29.4 µM
TGI (HCT-15 colon): > 100 µM
TGI (TK-10 renal): 70.8 µM
TGI (SW-620 colon): 39.7 µM
TGI (A498 renal): 61.1 µM
TGI (EKVX NSCLC): 47.8 µM
TGI (NCI-H460 lung): 37.5 µM
TGI (SF-268 CNS): 46.9 µM

CCCCSCC(NC(=O)/C=C/c1c(C)[nH]c(=O)[nH]c1=O)C(=O)OC (configuration not stated)
TGI (HOP-62 NSCLC): 252 µM
TGI (OVCAR-5 ovarian): 300 µM
TGI (LOX IMVI melanoma): > 450 µM
TGI (K-562 leukemia): 367 µM
TGI (HCT-15 colon): > 450 µM
TGI (SW-620 colon): 346 µM
TGI (A498 renal): 224 µM
TGI (EKVX NSCLC): 188 µM
TGI (NCI-H460 lung): 177 µM
TGI (SF-268 CNS): 341 µM

C=CCOCCC(CC=C)C(=O)CC(=O)OC (configuration not stated)
TGI (HOP-62 NSCLC): > 100 µM
TGI (OVCAR-5 ovarian): > 100 µM
TGI (LOX IMVI melanoma): > 100 µM
TGI (K-562 leukemia): > 100 µM
TGI (HCT-15 colon): > 100 µM
TGI (TK-10 renal): > 100 µM
TGI (SW-620 colon): > 100 µM
TGI (A498 renal): > 100 µM
TGI (EKVX NSCLC): > 100 µM
TGI (NCI-H460 lung): > 100 µM
TGI (SF-268 CNS): > 100 µM

CS(=O)(=O)c1ccc2nc(-c3ccc(O)cc3)sc2c1
TGI (OVCAR-5 ovarian): 31.6 µM
TGI (LOX IMVI melanoma): 45.5 µM
TGI (K-562 leukemia): > 100 µM
TGI (HCT-15 colon): 31.7 µM
TGI (TK-10 renal): 29.8 µM
TGI (SW-620 colon): 38.4 µM
TGI (A498 renal): 31.2 µM
TGI (EKVX NSCLC): 23.9 µM
TGI (NCI-H460 lung): 35.3 µM
TGI (SF-268 CNS): 32.3 µM
